Source: the supplement of paper PMC10307832

Columns and labels:
Assay in all cases: relative viability (nuclei count vs DMSO), 5 days (fraction); higher = more cells survive
[1] = compound: CC1=C(C(=O)N2C=CSC2=N1)CCN3CCC(=C(C4=CC=CC=C4)C5=CC=C(C=C5)F)CC3 + O=C(CCCCCCC(=O)Nc1ccccc1)NO [Vorinostat] (partner 1 µM)
Procedure, shortened: (§1)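 The day after seeding in 1536-well plates, lung cancer cell lines were treated by pin tool with a single drug, or with a fixed anchor-drug dose together with five library-drug doses (not always all listed) in √10 steps. After 5 days, a combined fix-and-stain solution (final 0.05% Triton X-100, 1% formaldehyde, 1 ug/ml Hoechst) was added. Nuclei counted on 4× images gave relative viability as treated counts over vehicle counts, reported as the median of duplicate plates.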

[2] = compound: CC1=C(C(=O)N2C=CSC2=N1)CCN3CCC(=C(C4=CC=CC=C4)C5=CC=C(C=C5)F)CC3 + Nc1nc2[nH]cc(CCc3ccc(C(=O)N[C@@H](CCC(=O)O)C(=O)O)cc3)c2c(=O)[nH]1 [Pemetrexed] (partner 0.2 µM)
Procedure, shortened: as §1

[3] = compound: CC1=C(C(=O)N2C=CSC2=N1)CCN3CCC(=C(C4=CC=CC=C4)C5=CC=C(C=C5)F)CC3 + Cc1nc(Nc2ncc(C(=O)Nc3c(C)cccc3Cl)s2)cc(N2CCN(CCO)CC2)n1 [Dasatinib] (partner 0.075 µM)
Procedure, shortened: as §1

[4] = compound: CC1=C(C(=O)N2C=CSC2=N1)CCN3CCC(=C(C4=CC=CC=C4)C5=CC=C(C=C5)F)CC3 + CC(=O)c1c(C)c2cnc(Nc3ccc(N4CCNCC4)cn3)nc2n(C2CCCC2)c1=O [Palbociclib] (partner 0.5 µM)
Procedure, shortened: as §1

Cell Line	relative viability ([1]; first compound 0.08 µM)	relative viability ([1]; first compound 0.253 µM)	relative viability ([1]; first compound 0.8 µM)	relative viability ([1]; first compound 2.53 µM)	relative viability ([1]; first compound 8 µM)	relative viability ([2]; first compound 0.08 µM)	relative viability ([2]; first compound 0.253 µM)	relative viability ([2]; first compound 0.8 µM)	relative viability ([2]; first compound 2.53 µM)	relative viability ([2]; first compound 8 µM)	relative viability ([3]; first compound 0.08 µM)	relative viability ([3]; first compound 0.253 µM)	relative viability ([3]; first compound 0.8 µM)	relative viability ([3]; first compound 2.53 µM)	relative viability ([3]; first compound 8 µM)	relative viability ([4]; first compound 0.08 µM)	relative viability ([4]; first compound 0.253 µM)	relative viability ([4]; first compound 0.8 µM)	relative viability ([4]; first compound 2.53 µM)	relative viability ([4]; first compound 8 µM)
NCI-H2087	0.865	0.591	0.859	0.625	0.485	0.634	0.686	0.595	0.682	0.599	0.91	0.87	0.882	0.752	0.637	0.279	0.237	0.236	0.227	0.238
NCI-H2126	0.794	0.852	0.784	0.802	0.631	0.587	0.758	0.713	0.721	0.511	0.529	0.553	0.565	0.634	0.689	0.367	0.343	0.359	0.367	0.344
NCI-H2170	0.638	0.791	0.739	0.715	0.463	0.278	0.269	0.28	0.271	0.248	0.516	0.472	0.65	0.669	0.496	0.396	0.405	0.36	0.37	0.344
NCI-H2228	0.474	0.557	0.636	0.599	0.337	0.406	0.37	0.375	0.362	0.278	0.542	0.555	0.562	0.546	0.338	0.56	0.68	0.723	0.468	0.432
NCI-H2342	0.63	0.882	0.778	0.795	0.6	0.657	0.821	0.76	0.818	0.634	0.255	0.304	0.291	0.306	0.247	0.48	0.487	0.548	0.519	0.528
NCI-H2347	0.538	0.603	0.573	0.579	0.453	0.398	0.482	0.441	0.454	0.409	0.263	0.31	0.311	0.48	0.283	0.358	0.428	0.434	0.442	0.461
NCI-H2405	1.18	–	1.08	1.06	0.789	1.11	–	1.07	1.08	0.758	0.23	0.223	0.208	0.186	0.184	0.609	–	0.547	0.576	0.476
NCI-H3122	0.875	1.1	1.08	0.987	0.516	0.192	0.188	0.201	0.214	0.163	1.02	0.769	0.781	1.06	0.524	0.178	0.213	0.192	0.164	0.157
